Measurements taken from patent publication US20230322861A1, “SYNTHETIC PEPTIDES FOR DISSOLVING TAU INCLUSIONS” (The Trustees of Princeton University, priority 2022, published 2023).

B1: Human SRRM2 Isoform 1 Fragment 26 (F26) WT (peptide)
chain: SSSSSSGSSSSDSEGSSLPVQPEVALKRVPSPTPAPKEAVREGRPPEPTPAKRKRRSSSSSSSSSSSSSSSSSSSSSSSS
notes: 5, mCherry-tagged

Columns and labels:
Format in all cases: cell-based
[1] = system: tau aggregate-containing cells (strain DS18); experiment: curing of tau aggregates in colonies of tau aggregate-containing cells expressing mCherry or SubF-mCherry; conditions: expressed for a week, passaged at low density, imaged after 7 days, 14 fields of view; representative field FIGS. 3A-3B
Protocol: FIGS. 3A-3B are images of representative fields of view of mCherry (3A) or SubF-mCherry (3B) in tau aggregate-containing cell colonies.
As an example of this, mCherry or SubF-mCherry were expressed in tau aggregate-containing cells (strain DS18) for a week. Cells were then passaged into a new dish at low density. After 7 days, 14 fields of view were imaged for each condition, and the fraction of colonies cured of tau aggregates was determined.

tau inclusions [2] = experiment: co-expression of fluorescent-tagged tau inclusions with mCherry-tagged synthetic peptide sequences; probability of cells containing a tau inclusion; conditions: at different concentrations of co-expressed peptide-mCherry fusion; FIGS. 2A-2K
Protocol: Various peptide sequences were tested by co-expressing fluorescent-tagged tau inclusions with mCherry-tagged synthetic peptide sequences, and quantifying a probability of cells containing a tau inclusion at different synthetic peptide concentrations.

tau inclusions [3] = experiment: as above; conditions: cells expressing peptide-mCherry fusion; FIGS. 2H, 2J, 2K

Molecule	colonies with / cured of tau aggregates [1]	probability of cells containing a tau inclusion (tau inclusions [2])	tau-negative aggregates (aggregates formed absent the presence of tau) (tau inclusions [3])
Sub F-mCherry: SubF sequence (KRKRR followed by 42 serines, SEQ ID NO. 3) fused to mCherry (KRKRRSSSSSSSSSSSSSSSSSSSSSSSSSSSSSSSSSSSSSSSSSS)	many of the 27 colonies lack aggregates in all cells		
SubF Scramble (SSSRSSSSSKSSSSSSASSSSPSSASSSSSRSSSSPSSSSSSKSSSSSRSSS) [#9, 12, mCherry-tagged]		no reduction in tau inclusions was seen	
SR Kinase (SRSRS) (ARSRSRSSSSSSSSSSSSSSSSSSSSSSSSSSSSSSSSSSSSSSSSSSSSSA) [#10, 13, mCherry-tagged]		reducing tau inclusions, relatively rapidly	tau-negative aggregates were noted
CK2 (SDSDS) (ASSSDSDSSSSSSSSSSSSSSSSSSSSSSSSSSSSSSSSSSSSSSSSSSSSA) [#11, 14, mCherry-tagged]		reduces tau inclusion	without forming tau-negative aggregates
S52 (Pure Polyserine) [#8]		no decrease in tau inclusions was seen	tau-negative aggregates were noted
B1		reduce the probability of tau inclusions to zero	
